Laboratory results reported in ChEMBL document CHEMBL1201862, “PubChem BioAssay data set” (2004).
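In this assay, cells in 96-well plates receive the compound at five concentrations for 48 hours. Endpoints are linearly interpolated between the surrounding concentrations. Abbreviation: GI50, concentration required for 50% inhibition of growth.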 Activity calls are given as the source filed them. No stated cut-off is given here; in the data, active = GI50 up to about 1.1 µM and inactive = higher.

How the values were obtained:
Assay in all cases: growth of human tumour cells (NCI), 48 h
A549 = test system: A549
ACHN = test system: ACHN
CAKI-1 = test system: CAKI-1
HOP-92 = test system: HOP-92
K562 = test system: K562
MDA-MB-231 = test system: MDA-MB-231
MDA-MB-435 = test system: MDA-MB-435
NCI/ADR-RES = test system: NCI/ADR-RES
OVCAR-4 = test system: OVCAR-4
OVCAR-5 = test system: OVCAR-5
PC-3 = test system: PC-3
SK-MEL-2 = test system: SK-MEL-2
SR = test system: SR
T47D = test system: T47D

Measured: GI50

CNc1ccc2c(c1)[C@@]1(C)c3ccccc3[C@@H](C2)N1C
inactive: A549 30.2 µM | ACHN 30.6 µM | CAKI-1 36.5 µM | HOP-92 27.1 µM | K562 23.2 µM | MDA-MB-231 23.2 µM | MDA-MB-435 19.1 µM | NCI/ADR-RES 27.4 µM | OVCAR-4 30.7 µM | OVCAR-5 25.9 µM | PC-3 29.9 µM | SK-MEL-2 21.6 µM | SR 22.6 µM | T47D 28.1 µM

S=C(Cc1ccc2c(c1)Sc1ccccc1O2)N1CCOCC1
inactive: A549 35.7 µM | ACHN 38.7 µM | CAKI-1 38.9 µM | HOP-92 30.6 µM | K562 > 100 µM | MDA-MB-231 58.7 µM | MDA-MB-435 29.4 µM | NCI/ADR-RES 24.8 µM | OVCAR-4 > 100 µM | OVCAR-5 > 100 µM | PC-3 28.3 µM | SK-MEL-2 66.7 µM | SR 26.7 µM | T47D 38.7 µM

O=P1(O)c2ccccc2CS(=O)(=O)Cc2ccccc21
inactive: A549 > 100 µM | ACHN > 100 µM | CAKI-1 > 100 µM | HOP-92 > 100 µM | K562 > 100 µM | MDA-MB-231 > 100 µM | MDA-MB-435 > 100 µM | NCI/ADR-RES > 100 µM | OVCAR-4 > 100 µM | OVCAR-5 > 100 µM | PC-3 > 100 µM | SK-MEL-2 > 100 µM | T47D > 100 µM

CC(C)(C)OC(=O)NC(Cc1ccc(OCc2ccccc2)cc1)C(=O)NC(COCc1ccccc1)C(=O)Oc1c(Cl)c(Cl)c(Cl)c(Cl)c1Cl (stereo unspecified)
inactive: A549 27.1 µM | ACHN 24.4 µM | CAKI-1 19.9 µM | HOP-92 13.8 µM | K562 > 100 µM | MDA-MB-231 13.5 µM | MDA-MB-435 21.7 µM | NCI/ADR-RES 21.2 µM | OVCAR-4 26.5 µM | OVCAR-5 25.5 µM | PC-3 19.5 µM | SK-MEL-2 19 µM | SR 44.9 µM | T47D 22.8 µM

COc1ccc(-c2csc3c2[N+]2(C)C=CC=C2C3N2CCCC2)cc1 (stereo unspecified)
inactive: A549 39.9 µM | ACHN 44.8 µM | CAKI-1 > 100 µM | HOP-92 18.7 µM | K562 6.61 µM | MDA-MB-231 94 µM | MDA-MB-435 3.13 µM | NCI/ADR-RES 17.3 µM | OVCAR-4 46.8 µM | OVCAR-5 39 µM | PC-3 23 µM | SK-MEL-2 10.6 µM | SR 5.28 µM | T47D 16.3 µM

C=Cc1cnc([N+](=O)[O-])n1C
inactive: A549 56 µM | ACHN 52 µM | CAKI-1 42.5 µM | HOP-92 35.8 µM | MDA-MB-231 > 100 µM | MDA-MB-435 60.8 µM | NCI/ADR-RES > 100 µM | OVCAR-5 > 100 µM | PC-3 40.8 µM | SR 20.7 µM | T47D 46.5 µM

CCN(CCO)C(=O)C1(c2ccccc2)CCCCC1
inactive: A549 > 10 µM | ACHN > 10 µM | CAKI-1 > 10 µM | K562 > 10 µM | MDA-MB-231 > 10 µM | MDA-MB-435 > 10 µM | NCI/ADR-RES > 10 µM | OVCAR-4 > 10 µM | OVCAR-5 > 10 µM | PC-3 > 10 µM | SK-MEL-2 > 10 µM | SR > 10 µM | T47D > 10 µM

CS(=O)(=O)c1n[nH]c2nc(O)nc(O)c12
inactive: A549 > 10 µM | ACHN > 10 µM | CAKI-1 > 10 µM | HOP-92 > 10 µM | MDA-MB-231 > 10 µM | MDA-MB-435 > 10 µM | NCI/ADR-RES > 10 µM | OVCAR-4 > 10 µM | OVCAR-5 > 10 µM | PC-3 > 10 µM | SK-MEL-2 > 10 µM | SR > 10 µM | T47D > 10 µM

CCCc1cc(=O)oc2c3c(c4c(c12)OC(C)(C)CC4)O[C@@H](C)[C@H](C)[C@H]3O
inactive: A549 10.8 µM | CAKI-1 35.1 µM | HOP-92 13.6 µM | K562 2.79 µM | MDA-MB-231 2.16 µM | MDA-MB-435 5.94 µM | NCI/ADR-RES 9.4 µM | OVCAR-4 10.1 µM | OVCAR-5 12.7 µM | PC-3 4.23 µM | SK-MEL-2 14.6 µM | T47D 6.58 µM

CCOC(=O)c1cn2c(n1)sc1cc([N+](=O)[O-])ccc12
inactive: A549 > 100 µM | ACHN 92.3 µM | CAKI-1 > 100 µM | HOP-92 > 100 µM | K562 > 100 µM | MDA-MB-231 38.5 µM | MDA-MB-435 > 100 µM | NCI/ADR-RES > 100 µM | OVCAR-4 > 100 µM | OVCAR-5 > 100 µM | PC-3 > 100 µM | SK-MEL-2 > 100 µM | SR > 100 µM | T47D > 100 µM

COC(=O)Cc1c([C@H]2[C@H](CC(=O)OC)c3ccccc3N2C(=O)C(F)(F)F)[nH]c2ccccc12
inactive: A549 31.3 µM | ACHN 29.8 µM | CAKI-1 41.3 µM | HOP-92 32.3 µM | K562 11.1 µM | MDA-MB-231 20.7 µM | MDA-MB-435 21.9 µM | NCI/ADR-RES 21.5 µM | OVCAR-4 56.6 µM | OVCAR-5 18.9 µM | PC-3 11.4 µM | SK-MEL-2 25 µM | SR 14.7 µM | T47D 36.5 µM

CC1(c2nc3ccccc3[nH]2)CCC(C#N)C(C)(C)O1 (stereo unspecified)
inactive: A549 > 100 µM | ACHN > 100 µM | CAKI-1 > 100 µM | HOP-92 > 100 µM | K562 > 100 µM | MDA-MB-231 > 100 µM | MDA-MB-435 > 100 µM | NCI/ADR-RES > 100 µM | OVCAR-4 > 100 µM | OVCAR-5 > 100 µM | PC-3 > 100 µM | SK-MEL-2 > 100 µM | SR > 100 µM | T47D > 100 µM

NC(=O)c1ccccc1NC(=O)C(=O)C(c1cnc2ccc([N+](=O)[O-])cc2n1)[N+](=O)[O-] (stereo unspecified)
inactive: A549 > 100 µM | ACHN 23.5 µM | CAKI-1 > 100 µM | HOP-92 > 100 µM | K562 > 100 µM | MDA-MB-231 > 100 µM | MDA-MB-435 > 100 µM | NCI/ADR-RES > 100 µM | OVCAR-4 53.6 µM | OVCAR-5 > 100 µM | PC-3 > 100 µM | SK-MEL-2 > 100 µM | T47D > 100 µM

S=C(S)N1CCN(c2ccccc2)CC1
inactive: A549 > 100 µM | ACHN > 100 µM | CAKI-1 > 100 µM | HOP-92 > 100 µM | K562 52.6 µM | MDA-MB-231 > 100 µM | MDA-MB-435 > 100 µM | NCI/ADR-RES > 100 µM | OVCAR-5 > 100 µM | PC-3 > 100 µM | SK-MEL-2 37.9 µM | T47D > 100 µM

O=c1[nH]nc(-c2ccccc2)n1/N=C/c1ccccc1Cl
inactive: A549 34.1 µM | ACHN 52.6 µM | CAKI-1 36.6 µM | HOP-92 67.1 µM | K562 31.3 µM | MDA-MB-231 > 100 µM | MDA-MB-435 19.1 µM | NCI/ADR-RES 19.8 µM | OVCAR-4 15.2 µM | OVCAR-5 > 100 µM | PC-3 15.1 µM | SK-MEL-2 18 µM | SR 30.3 µM | T47D 24.8 µM

COc1cc(CO)c(CC(=O)NCCCc2ccccc2)cc1OC
inactive: A549 > 100 µM | ACHN > 100 µM | CAKI-1 > 100 µM | HOP-92 > 100 µM | K562 > 100 µM | MDA-MB-231 > 100 µM | MDA-MB-435 56 µM | NCI/ADR-RES 99.1 µM | OVCAR-4 > 100 µM | OVCAR-5 > 100 µM | PC-3 > 100 µM | SK-MEL-2 > 100 µM | SR 9.06 µM | T47D 15 µM

CC(C)=CCN1c2ccc(Cl)cc2NC(=O)CC1C (stereo unspecified)
inactive: A549 27.2 µM | ACHN 19.1 µM | CAKI-1 15.8 µM | HOP-92 14.1 µM | K562 65.6 µM | MDA-MB-231 19.3 µM | MDA-MB-435 19.5 µM | OVCAR-4 22 µM | OVCAR-5 59.4 µM | PC-3 23.8 µM | SK-MEL-2 20.6 µM | SR 5.45 µM | T47D 29.6 µM

BrP(NC1CCCCCC1)(c1ccccc1)(c1ccccc1)c1ccccc1
inactive: A549 5.94 µM | ACHN 3.27 µM | CAKI-1 3.98 µM | K562 2.74 µM | MDA-MB-231 3.56 µM | MDA-MB-435 2.15 µM | NCI/ADR-RES 44 µM | OVCAR-5 18 µM | PC-3 1.56 µM | SK-MEL-2 2.44 µM | SR 3.88 µM | T47D 1.93 µM

COc1ccc(C(C2C(=O)N(C)C(=O)N(C)C2=O)C(F)(F)C(=O)N(C)C)cc1 (stereo unspecified)
inactive: A549 > 100 µM | ACHN > 100 µM | CAKI-1 > 100 µM | HOP-92 > 100 µM | MDA-MB-231 > 100 µM | MDA-MB-435 > 100 µM | NCI/ADR-RES > 100 µM | OVCAR-4 > 100 µM | OVCAR-5 > 100 µM | PC-3 > 100 µM | SK-MEL-2 > 100 µM | T47D > 100 µM

C=CC[N+]12CN3CN(CN(C3)C1)C2
inactive: A549 31.3 µM | ACHN 21.3 µM | CAKI-1 20.5 µM | HOP-92 23.8 µM | K562 19.2 µM | MDA-MB-231 32.2 µM | MDA-MB-435 19.7 µM | NCI/ADR-RES 26.1 µM | OVCAR-4 26.2 µM | OVCAR-5 23.2 µM | PC-3 31.4 µM | SK-MEL-2 42.1 µM | T47D 27 µM

CCOC(=O)c1ccc(C(=O)n2ccnc2)[nH]1
inactive: A549 > 100 µM | ACHN > 100 µM | CAKI-1 > 100 µM | K562 > 100 µM | MDA-MB-231 > 100 µM | MDA-MB-435 > 100 µM | NCI/ADR-RES > 100 µM | OVCAR-4 84.3 µM | OVCAR-5 > 100 µM | PC-3 > 100 µM | SK-MEL-2 > 100 µM | SR > 100 µM | T47D > 100 µM
